Assay results reported in PubChem BioAssay AID248 (DTP/NCI, 2004).
Where “and” joins values, the source holds several entries; their conditions need not be identical. Equal values may be shown once. Toxic doses and inconclusive results are not listed. No stated cut-off is given here; in the data, active means T/C of 150% or more; inactive means T/C below 125%.

System: L1210 leukemia ip in BDF1 mice, survival T/C
Test: NCI In Vivo Anticancer Drug Screen. Data for tumor model L1210 Leukemia (intraperitoneal) in B6D2F1 (BDF1) mice
Details: endpoint: mean survival time, higher = longer survival
In short: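 Mice bearing the transplanted tumor received compound or vehicle. Survival of the treated group was divided by that of the vehicle-treated control group to give the ratio.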

[1] = dose: 100.0 mg/kg/injection, schedule: Q04DX003 (ip), vehicle: saline with Tween-80
[2] = dose: 200.0 mg/kg/injection, schedule: Q04DX003 (ip), vehicle: saline with Tween-80
[3] = dose: 100.0 mg/kg/injection, schedule: Q01DX009 (ip), vehicle: Klucel (hydroxypropylcellulose) (HPC)
[4] = dose: 100.0 mg/kg/injection, schedule: Q04DX003 (ip), vehicle: Klucel (hydroxypropylcellulose) (HPC)
[5] = dose: 200.0 mg/kg/injection, schedule: Q04DX003 (ip), vehicle: Klucel (hydroxypropylcellulose) (HPC)
[6] = dose: 400.0 mg/kg/injection, schedule: Q04DX003 (ip), vehicle: Klucel (hydroxypropylcellulose) (HPC)
[7] = dose: 200.0 mg/kg/injection, schedule: Q01DX009 (ip), vehicle: Klucel (hydroxypropylcellulose) (HPC)
[8] = dose: 400.0 mg/kg/injection, schedule: Q01DX009 (ip), vehicle: Klucel (hydroxypropylcellulose) (HPC)
[9] = dose: 400.0 mg/kg/injection, schedule: Q04DX003 (ip), vehicle: saline with Tween-80
[10] = dose: 100.0 mg/kg/injection, schedule: Q04DX003 (ip), vehicle: saline
[11] = dose: 200.0 mg/kg/injection, schedule: Q04DX003 (ip), vehicle: saline
[12] = dose: 400.0 mg/kg/injection, schedule: Q04DX003 (ip), vehicle: saline
[13] = dose: 12.5 mg/kg/injection, schedule: Q04DX003 (ip), vehicle: Klucel (hydroxypropylcellulose) (HPC)
[14] = dose: 25.0 mg/kg/injection, schedule: Q04DX003 (ip), vehicle: Klucel (hydroxypropylcellulose) (HPC)
[15] = dose: 50.0 mg/kg/injection, schedule: Q01DX001 (ip), vehicle: Klucel (hydroxypropylcellulose) (HPC)
[16] = dose: 50.0 mg/kg/injection, schedule: Q04DX003 (ip), vehicle: Klucel (hydroxypropylcellulose) (HPC)
[17] = dose: 100.0 mg/kg/injection, schedule: Q01DX001 (ip), vehicle: Klucel (hydroxypropylcellulose) (HPC)
[18] = dose: 100.0 mg/kg/injection, schedule: Q01DX009 (ip), vehicle: saline with Tween-80
[19] = dose: 200.0 mg/kg/injection, schedule: Q01DX009 (ip), vehicle: saline with Tween-80

Measured: T/C

FC(F)(F)C(F)(F)C(F)(F)c1nc2nc(Cl)c(Cl)nc2[nH]1
inactive: dose: 25.0 mg/kg/injection, schedule: Q01DX009 (ip), vehicle: saline with Tween-80 111 % of control | dose: 50.0 mg/kg/injection, schedule: Q01DX009 (ip), vehicle: saline with Tween-80 96 % of control and 100 % of control | [1] 91 % of control | [2] 93 % of control

O=[N+]([O-])/C=C/c1c(Cl)cccc1Cl
inactive: dose: 6.25 mg/kg/injection, schedule: Q01DX005 (ip), vehicle: other 108 % of control | dose: 12.5 mg/kg/injection, schedule: Q01DX005 (ip), vehicle: other 106 % of control | dose: 25.0 mg/kg/injection, schedule: Q01DX005 (ip), vehicle: other 93 % of control | dose: 50.0 mg/kg/injection, schedule: Q01DX005 (ip), vehicle: saline with Tween-80 101 % of control | dose: 50.0 mg/kg/injection, schedule: Q01DX009 (ip), vehicle: Klucel (hydroxypropylcellulose) (HPC) 95 % of control | [3] 93 % of control | [4] 94 % of control | [5] 100 % of control | [6] 103 % of control

CC(=O)c1cccc(NC(=O)Nc2ccccc2)c1
inactive: [3] 94 % of control | [4] 100 % of control | [7] 98 % of control | [5] 96 % of control | [8] 100 % of control | [6] 97 % of control

CCCCNC(=O)/C=C/C(=O)NCCCC
inactive: [1] 100 % of control | [2] 100 % of control | [9] 100 % of control

C[N+]1(C)N=C([O-])C=C1c1ccccc1
inactive: [10] 111 % of control | [11] 104 % of control | [12] 102 % of control

c1ccc([Se]c2ccccn2)nc1
inactive: dose: 12.5 mg/kg/injection, schedule: Q01DX009 (ip), vehicle: Klucel (hydroxypropylcellulose) (HPC) 101 % of control | [13] 105 % of control | dose: 25.0 mg/kg/injection, schedule: Q01DX001 (ip), vehicle: Klucel (hydroxypropylcellulose) (HPC) 102 % of control | dose: 25.0 mg/kg/injection, schedule: Q01DX009 (ip), vehicle: Klucel (hydroxypropylcellulose) (HPC) 98 % of control | [14] 103 % of control | [15] 110 % of control | [16] 107 % of control and 110 % of control | [17] 105 % of control

O=C1NC2(CCc3ccccc32)C(=O)O1 (stereo not given)
inactive: [4] 110 % of control | [5] 100 % of control | [6] 98 % of control

CC(C)(COS(C)(=O)=O)COS(C)(=O)=O
inactive: [15] 95 % of control | [17] 93 % of control | dose: 200.0 mg/kg/injection, schedule: Q01DX001 (ip), vehicle: Klucel (hydroxypropylcellulose) (HPC) 93 % of control | dose: 400.0 mg/kg/injection, schedule: Q01DX001 (ip), vehicle: Klucel (hydroxypropylcellulose) (HPC) 101 % of control

O=C1c2ccccc2-c2cc(Br)c([N+](=O)[O-])c(Br)c21
inactive: dose: 100.0 mg/kg/injection, schedule: Q01DX001 (ip), vehicle: carboxymethylcellulose (CMC) 96 % of control | dose: 200.0 mg/kg/injection, schedule: Q01DX001 (ip), vehicle: carboxymethylcellulose (CMC) 101 % of control | dose: 400.0 mg/kg/injection, schedule: Q01DX001 (ip), vehicle: carboxymethylcellulose (CMC) 102 % of control

Cc1nc(N)[nH]c(=O)c1CCCNc1ccc(CCC(=O)CCl)cc1
inactive: dose: 50.0 mg/kg/injection, schedule: Q01DX Z (ip), vehicle: carboxymethylcellulose (CMC) 94 % of control | dose: 100.0 mg/kg/injection, schedule: Q01DX Z (ip), vehicle: carboxymethylcellulose (CMC) 94 % of control | dose: 200.0 mg/kg/injection, schedule: Q01DX Z (ip), vehicle: carboxymethylcellulose (CMC) 86 % of control

CSc1ccc(NC(=O)Oc2cc3ccccc3cc2C(=O)Nc2ccc(Cl)cc2)cc1
inactive: [18] 99 % of control and 86 % of control | dose: 100.0 mg/kg/injection, schedule: Q04DX002 (ip), vehicle: saline with Tween-80 88 % of control | [1] 90 % of control | [19] 111 % of control and 89 % of control | dose: 200.0 mg/kg/injection, schedule: Q04DX002 (ip), vehicle: saline with Tween-80 91 % of control and 92 % of control | [2] 92 % of control | dose: 400.0 mg/kg/injection, schedule: Q01DX009 (ip), vehicle: saline with Tween-80 95 % of control and 96 % of control | dose: 400.0 mg/kg/injection, schedule: Q04DX002 (ip), vehicle: saline with Tween-80 94 % of control and 103 % of control | [9] 87 % of control

Nc1cccc(CCCCOc2ccccc2)c1
inactive: [18] 97 % of control | [1] 97 % of control | [19] 98 % of control | [2] 103 % of control | [9] 105 % of control

[N-]=C(CC(=O)c1ccccc1)c1ccccc1.[N-]=C(CC(=O)c1ccccc1)c1ccccc1.[Ni+2]
inactive: [13] 90 % of control | [14] 93 % of control | [16] 91 % of control | [4] 90 % of control | [5] 93 % of control | [6] 90 % of control

O=C(/C=C/C(=O)Oc1c(Cl)c(Cl)c(Cl)c(Cl)c1Cl)Oc1c(Cl)c(Cl)c(Cl)c(Cl)c1Cl
inactive: [3] 100 % of control | [4] 111 % of control | [7] 104 % of control | [5] 93 % of control | [8] 100 % of control | [6] 105 % of control

CC12CCC(C1)C(C)(C)C2C(N)=O (stereo not given)
inactive: [4] 93 % of control | [5] 93 % of control

Nc1nc(SCc2ccccc2)c2nnn(C3OC(CO)C(O)C3O)c2n1 (stereo not given)
inactive: dose: 100.0 mg/kg/injection, schedule: Q01DX001 (ip), vehicle: saline with Tween-80 101 % of control | dose: 200.0 mg/kg/injection, schedule: Q01DX001 (ip), vehicle: saline with Tween-80 96 % of control | dose: 400.0 mg/kg/injection, schedule: Q01DX001 (ip), vehicle: saline with Tween-80 111 % of control

C=CCc1ccc(OC(=O)Nc2ccc(S(=O)(=O)N3CCCCC3)cc2)c(OC)c1
inactive: dose: 12.5 mg/kg/injection, schedule: Q01DX001 (ip), vehicle: other 98 % of control | dose: 25.0 mg/kg/injection, schedule: Q01DX001 (ip), vehicle: other 90 % of control | dose: 50.0 mg/kg/injection, schedule: Q01DX001 (ip), vehicle: other 90 % of control

CC(=O)OC(OC(C)=O)c1ccc([N+](=O)[O-])c([N+](=O)[O-])c1
inactive: dose: 12.5 mg/kg/injection, schedule: Q01DX001 (ip), vehicle: carboxymethylcellulose (CMC) 97 % of control | dose: 25.0 mg/kg/injection, schedule: Q01DX001 (ip), vehicle: carboxymethylcellulose (CMC) 97 % of control | dose: 50.0 mg/kg/injection, schedule: Q01DX001 (ip), vehicle: carboxymethylcellulose (CMC) 94 % of control

Cc1c2ccccc2c(C)c2c1ccc1ccccc12
inactive: dose: 6.25 mg/kg/injection, schedule: Q01DX001 (ip), vehicle: acetone 123 % of control | dose: 12.37 mg/kg/injection, schedule: Q04DX003 (ip), vehicle: saline with Tween-80 112 % of control

O=C(NCc1cnccn1)c1ccco1
inactive: dose: 50.0 mg/kg/injection, schedule: Q01DX005 (ip), vehicle: saline 109 % of control | dose: 100.0 mg/kg/injection, schedule: Q01DX005 (ip), vehicle: saline 111 % of control | dose: 200.0 mg/kg/injection, schedule: Q01DX005 (ip), vehicle: saline 104 % of control

CCCCCCCCc1cc[n+](C2=C([O-])c3ccccc3C(=O)C2=O)cc1
inactive: dose: 1.5 mg/kg/injection, schedule: Q01DX009 (ip), vehicle: saline 106 % of control | dose: 3.0 mg/kg/injection, schedule: Q01DX009 (ip), vehicle: saline 95 % of control | dose: 6.0 mg/kg/injection, schedule: Q01DX009 (ip), vehicle: saline 106 % of control

CC(C)NCC1CCCO1 (stereo not given)
inactive: [10] 94 % of control | [11] 94 % of control | [12] 97 % of control

O=C(CC(C#Cc1ccccc1)c1ccccc1)c1ccccc1 (stereo not given)
inactive: dose: 75.0 mg/kg/injection, schedule: Q04DX003 (ip), vehicle: Klucel (hydroxypropylcellulose) (HPC) 97 % of control | dose: 150.0 mg/kg/injection, schedule: Q04DX003 (ip), vehicle: Klucel (hydroxypropylcellulose) (HPC) 101 % of control | dose: 300.0 mg/kg/injection, schedule: Q04DX003 (ip), vehicle: Klucel (hydroxypropylcellulose) (HPC) 94 % of control

O=[N+]([O-])c1cccc(C=Nc2ccccc2)c1
inactive: [4] 112 % of control | [5] 96 % of control | [6] 96 % of control
